# Experimental data as given in PubChem BioAssay (NCI).
#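 Five concentrations, 48 hours, 96-well plates. TGI: total growth inhibition.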
# Key:
# Test in all cases: DTP human tumour cell line panel, 48 h
# [1] = tested on: DU-145 prostate
# [2] = tested on: SNB-19 CNS
# [3] = tested on: SW-620 colon
# [4] = tested on: SK-OV-3 ovarian
# [5] = tested on: HOP-62 NSCLC
# [6] = tested on: SK-MEL-28 melanoma
# [7] = tested on: OVCAR-8 ovarian
# [8] = tested on: CCRF-CEM leukemia
# [9] = tested on: K-562 leukemia
# [10] = tested on: OVCAR-5 ovarian
# [11] = tested on: SF-539 CNS
# [12] = tested on: MALME-3M melanoma
# [13] = tested on: A549 NSCLC
# [14] = tested on: NCI-H23 lung
# [15] = tested on: SR leukemia
# [16] = tested on: SN12C renal
# [17] = tested on: ACHN renal
# [18] = tested on: COLO 205 colon
# [19] = tested on: SF-295 CNS
# [20] = tested on: HCT-116 colon
# [21] = tested on: SF-268 CNS
# [22] = tested on: RXF 393 renal
# [23] = tested on: EKVX NSCLC
# [24] = tested on: IGROV1 ovarian
# [25] = tested on: NCI/ADR-RES ovarian
# [26] = tested on: NCI-H522 lung
# [27] = tested on: SNB-75 CNS
# [28] = tested on: HT29 colon
# [29] = tested on: RPMI-8226 leukemia
# [30] = tested on: TK-10 renal
# [31] = tested on: SK-MEL-5 melanoma
# [32] = tested on: CAKI-1 renal
# [33] = tested on: MDA-MB-231 breast
# [34] = tested on: MDA-MB-435
# [35] = tested on: PC-3 prostate
# [36] = tested on: HL-60(TB) leukemia
# [37] = tested on: MOLT-4 leukemia
# [38] = tested on: OVCAR-3 ovarian
# [39] = tested on: M14 melanoma
# [40] = tested on: HOP-92 NSCLC
# [41] = tested on: UO-31 renal
# [42] = tested on: NCI-H226 lung
# [43] = tested on: BT-549 breast
# [44] = tested on: UACC-257 melanoma
# [45] = tested on: LOX IMVI melanoma
# [46] = tested on: A498 renal
# [47] = tested on: UACC-62 melanoma
# [48] = tested on: U251 CNS
# [49] = tested on: NCI-H460 lung
# [50] = tested on: 786-0 renal
# [51] = tested on: HS 578T breast
# [52] = tested on: MDA-N
# [53] = tested on: SK-MEL-2 melanoma
# [54] = tested on: KM12 colon
# [55] = tested on: OVCAR-4 ovarian
# [56] = tested on: HCT-15 colon
# [57] = tested on: MCF7 breast
# [58] = tested on: T-47D breast
# [59] = tested on: HCC-2998 colon
smiles,measurement,setting,value
CC(C)=CCNc1ncnc2c1c(C#N)cn2C1OC(CO)C(O)C1O (stereo not given),TGI,[1],> 100 µM
same,TGI,[2],> 100 µM
same,TGI,[3],> 100 µM
same,TGI,[4],> 100 µM
same,TGI,[5],> 100 µM
same,TGI,[6],> 100 µM
same,TGI,[7],> 100 µM
same,TGI,[8],81.5 µM
same,TGI,[9],> 100 µM
same,TGI,[10],> 100 µM
same,TGI,[11],> 100 µM
same,TGI,[12],> 100 µM
same,TGI,[13],> 100 µM
same,TGI,[14],> 100 µM
same,TGI,[15],> 100 µM
same,TGI,[16],> 100 µM
same,TGI,[17],> 100 µM
same,TGI,[18],6.76 µM
same,TGI,[19],> 100 µM
same,TGI,[20],> 100 µM
same,TGI,[21],> 100 µM
same,TGI,[22],> 100 µM
same,TGI,[23],> 100 µM
same,TGI,[24],> 100 µM
same,TGI,[25],> 100 µM
same,TGI,[26],> 50.3 µM
same,TGI,[27],> 100 µM
same,TGI,[28],> 100 µM
same,TGI,[29],> 72.9 µM
same,TGI,[30],24.7 µM
same,TGI,[31],> 100 µM
same,TGI,[32],> 100 µM
same,TGI,[33],> 100 µM
same,TGI,[34],> 100 µM
same,TGI,[35],> 100 µM
same,TGI,[36],67.9 µM
same,TGI,[37],> 100 µM
same,TGI,[38],77.1 µM
same,TGI,[39],> 100 µM
same,TGI,[40],> 100 µM
same,TGI,[41],> 100 µM
same,TGI,[42],> 100 µM
same,TGI,[43],> 100 µM
same,TGI,[44],> 100 µM
same,TGI,[45],> 100 µM
same,TGI,[46],> 72.6 µM
same,TGI,[47],> 100 µM
same,TGI,[48],> 100 µM
same,TGI,[49],33.6 µM
same,TGI,[50],> 100 µM
same,TGI,[51],> 100 µM
same,TGI,[52],> 100 µM
same,TGI,[53],> 100 µM
same,TGI,[54],> 100 µM
same,TGI,[55],23.3 µM
same,TGI,[56],> 100 µM
CC#CC(O)(C(=O)OC1CCC2CCC1N2C)C1CCCC1 (stereo not given),TGI,[1],> 100 µM
same,TGI,[2],> 100 µM
same,TGI,[3],> 100 µM
same,TGI,[4],> 100 µM
same,TGI,[5],> 100 µM
same,TGI,[6],> 100 µM
same,TGI,[7],> 100 µM
same,TGI,[10],> 10 µM
same,TGI,[11],> 100 µM
same,TGI,[12],> 100 µM
same,TGI,[13],> 100 µM
same,TGI,[14],> 100 µM
same,TGI,[57],> 100 µM
same,TGI,[15],> 100 µM
same,TGI,[16],> 100 µM
same,TGI,[17],> 10 µM
same,TGI,[18],> 100 µM
same,TGI,[19],> 100 µM
same,TGI,[20],> 100 µM
same,TGI,[21],> 100 µM
same,TGI,[22],> 100 µM
same,TGI,[23],> 100 µM
same,TGI,[24],> 100 µM
same,TGI,[25],> 10 µM
same,TGI,[26],> 100 µM
same,TGI,[27],> 100 µM
same,TGI,[28],> 100 µM
same,TGI,[29],> 100 µM
same,TGI,[30],> 100 µM
same,TGI,[31],> 100 µM
same,TGI,[32],> 100 µM
same,TGI,[58],> 100 µM
same,TGI,[33],> 100 µM
same,TGI,[35],> 100 µM
same,TGI,[37],> 100 µM
same,TGI,[38],> 100 µM
same,TGI,[39],> 100 µM
same,TGI,[41],> 100 µM
same,TGI,[42],> 100 µM
same,TGI,[44],> 100 µM
same,TGI,[45],> 100 µM
same,TGI,[59],> 100 µM
same,TGI,[47],> 100 µM
same,TGI,[48],> 10 µM
same,TGI,[50],> 100 µM
same,TGI,[52],> 100 µM
same,TGI,[54],> 100 µM
same,TGI,[56],> 100 µM
O=c1[nH]c(=O)n(COCCOCc2ccccc2)cc1Nc1ccccc1,TGI,[1],> 100 µM
same,TGI,[2],> 100 µM
same,TGI,[3],> 100 µM
same,TGI,[4],> 100 µM
same,TGI,[5],> 100 µM
same,TGI,[6],> 100 µM
same,TGI,[7],> 100 µM
same,TGI,[8],> 100 µM
same,TGI,[9],> 100 µM
same,TGI,[10],> 100 µM
same,TGI,[11],> 100 µM
same,TGI,[12],> 100 µM
same,TGI,[13],> 100 µM
same,TGI,[14],> 100 µM
same,TGI,[57],> 100 µM
same,TGI,[15],> 100 µM
same,TGI,[16],> 100 µM
same,TGI,[17],> 100 µM
same,TGI,[18],> 100 µM
same,TGI,[19],> 100 µM
same,TGI,[20],> 100 µM
same,TGI,[21],> 100 µM
same,TGI,[22],> 100 µM
same,TGI,[23],> 100 µM
same,TGI,[24],> 100 µM
same,TGI,[25],> 100 µM
same,TGI,[26],> 100 µM
same,TGI,[27],> 100 µM
same,TGI,[28],> 100 µM
same,TGI,[30],> 100 µM
same,TGI,[32],> 100 µM
same,TGI,[58],> 100 µM
same,TGI,[33],> 100 µM
same,TGI,[34],> 100 µM
same,TGI,[35],> 100 µM
same,TGI,[36],> 100 µM
same,TGI,[37],> 100 µM
same,TGI,[38],> 100 µM
same,TGI,[39],> 100 µM
same,TGI,[40],> 100 µM
same,TGI,[41],> 100 µM
same,TGI,[42],> 100 µM
same,TGI,[44],> 100 µM
same,TGI,[45],> 100 µM
same,TGI,[46],> 100 µM
same,TGI,[59],> 100 µM
same,TGI,[47],> 100 µM
same,TGI,[48],> 100 µM
same,TGI,[49],> 100 µM
same,TGI,[50],> 100 µM
same,TGI,[52],> 100 µM
same,TGI,[53],> 100 µM
same,TGI,[54],> 100 µM
same,TGI,[55],> 100 µM
same,TGI,[56],> 100 µM
Cc1cc(Cl)nc(Nc2nc3ccccc3[nH]2)n1,TGI,[1],> 100 µM
same,TGI,[2],> 100 µM
same,TGI,[3],> 100 µM
same,TGI,[4],> 100 µM
same,TGI,[5],> 100 µM
same,TGI,[6],> 100 µM
same,TGI,[7],> 100 µM
same,TGI,[8],> 100 µM
same,TGI,[9],> 100 µM
same,TGI,[10],> 100 µM
same,TGI,[11],> 100 µM
same,TGI,[12],> 100 µM
same,TGI,[13],> 100 µM
same,TGI,[14],> 100 µM
same,TGI,[57],> 100 µM
same,TGI,[15],> 100 µM
same,TGI,[16],> 100 µM
same,TGI,[17],> 100 µM
same,TGI,[18],> 100 µM
same,TGI,[19],> 100 µM
same,TGI,[20],> 100 µM
same,TGI,[21],> 100 µM
same,TGI,[22],> 100 µM
same,TGI,[24],> 100 µM
same,TGI,[25],> 100 µM
same,TGI,[26],5.96 µM
same,TGI,[27],> 100 µM
same,TGI,[28],> 100 µM
same,TGI,[30],> 100 µM
same,TGI,[31],> 100 µM
same,TGI,[33],> 100 µM
same,TGI,[34],> 100 µM
same,TGI,[35],> 100 µM
same,TGI,[36],> 100 µM
same,TGI,[38],> 100 µM
same,TGI,[39],> 100 µM
same,TGI,[40],> 100 µM
same,TGI,[41],> 100 µM
same,TGI,[42],> 100 µM
same,TGI,[43],> 100 µM
same,TGI,[44],> 100 µM
same,TGI,[45],> 100 µM
same,TGI,[46],> 100 µM
same,TGI,[59],> 100 µM
same,TGI,[47],> 100 µM
same,TGI,[48],> 100 µM
same,TGI,[49],> 100 µM
same,TGI,[50],> 100 µM
same,TGI,[51],> 100 µM
same,TGI,[52],> 100 µM
same,TGI,[53],> 100 µM
same,TGI,[55],> 100 µM
same,TGI,[56],> 100 µM
CC1CCC2C(C)(C)CC3(C)CCC1C23O (stereo not given),TGI,[2],> 100 µM
same,TGI,[3],30.2 µM
same,TGI,[4],89.2 µM
same,TGI,[5],30.6 µM
same,TGI,[6],29.8 µM
same,TGI,[7],34.4 µM
same,TGI,[8],21.7 µM
same,TGI,[9],40.9 µM
same,TGI,[10],34.9 µM
same,TGI,[11],31.6 µM
same,TGI,[12],26.2 µM
same,TGI,[13],37 µM
same,TGI,[14],29.6 µM
same,TGI,[57],29.3 µM
same,TGI,[15],29.1 µM
same,TGI,[16],32.6 µM
same,TGI,[17],29.7 µM
same,TGI,[18],33.2 µM
same,TGI,[19],25.8 µM
same,TGI,[20],27.9 µM
same,TGI,[22],30.8 µM
same,TGI,[23],28.3 µM
same,TGI,[24],29.4 µM
same,TGI,[25],28 µM
same,TGI,[27],48.4 µM
same,TGI,[28],29.9 µM
same,TGI,[30],31.6 µM
same,TGI,[31],27.7 µM
same,TGI,[32],27.2 µM
same,TGI,[33],29.7 µM
same,TGI,[34],30.5 µM
same,TGI,[35],25.7 µM
same,TGI,[36],5.57 µM
same,TGI,[37],28 µM
same,TGI,[38],29.9 µM
same,TGI,[39],29.4 µM
same,TGI,[40],26.4 µM
same,TGI,[41],30 µM
same,TGI,[42],29.9 µM
same,TGI,[43],32 µM
same,TGI,[44],29.7 µM
same,TGI,[45],28.9 µM
same,TGI,[46],36.7 µM
same,TGI,[47],28.2 µM
same,TGI,[48],29.5 µM
same,TGI,[49],30.7 µM
same,TGI,[50],29 µM
same,TGI,[51],30.3 µM
same,TGI,[52],25.3 µM
same,TGI,[53],27.3 µM
same,TGI,[54],29.1 µM
same,TGI,[55],49.6 µM
same,TGI,[56],30.6 µM
